Measured values from publication PMC5513037, “Examining the influence of specificity ligands and ATP-competitive ligands on the overall effectiveness of bivalent kinase inhibitors” (Proteome Science, 2017).
pIC50: −log10 of the molar value. Values belong to the compound of their own block, whether it stands above or below them.

What was measured:
ALPK3 = molecular target: T1, ALPK3 (Homo sapiens, UniProt Q96L96); assay: Imatinib-matrix competition in K562 lysate; format: binding; conditions: read-out: RB50 (the source's name)
T1 construct: endogenous in cells; host or cells: K562
From the text: (§1) Data were visualized for further analysis using Spotfire DXP.

BRD4 = molecular target: T2, BRD4 (Homo sapiens, UniProt O60885); assay: Imatinib-matrix competition in K562 lysate; format: binding; conditions: read-out: RB50 (the source's name)
T2 construct: endogenous in cells; host or cells: K562
From the text: as §1

BUB1B = molecular target: T3, BUB1B (Homo sapiens, UniProt O60566); assay: Imatinib-matrix competition in K562 lysate; format: binding; conditions: read-out: RB50 (the source's name)
T3 construct: endogenous in cells; host or cells: K562
From the text: as §1

CDC7 = molecular target: T4, CDC7 (Homo sapiens, UniProt O00311); assay: Imatinib-matrix competition in K562 lysate; format: binding; conditions: read-out: RB50 (the source's name)
T4 construct: endogenous in cells; host or cells: K562 lysate
From the text: as §1

CHD5 = molecular target: T5, CHD5 (Homo sapiens, UniProt Q8TDI0); assay: Imatinib-matrix competition in K562 lysate; format: binding; conditions: read-out: RB50 (the source's name)
T5 construct: endogenous in cells; host or cells: K562
From the text: as §1

EEF2K = molecular target: T6, EEF2K (Homo sapiens, UniProt O00418); assay: Imatinib-matrix competition in K562 lysate; format: binding; conditions: read-out: RB50 (the source's name)
T6 construct: endogenous in cells; host or cells: K562 lysate
T6 sequence (O00418 1-725): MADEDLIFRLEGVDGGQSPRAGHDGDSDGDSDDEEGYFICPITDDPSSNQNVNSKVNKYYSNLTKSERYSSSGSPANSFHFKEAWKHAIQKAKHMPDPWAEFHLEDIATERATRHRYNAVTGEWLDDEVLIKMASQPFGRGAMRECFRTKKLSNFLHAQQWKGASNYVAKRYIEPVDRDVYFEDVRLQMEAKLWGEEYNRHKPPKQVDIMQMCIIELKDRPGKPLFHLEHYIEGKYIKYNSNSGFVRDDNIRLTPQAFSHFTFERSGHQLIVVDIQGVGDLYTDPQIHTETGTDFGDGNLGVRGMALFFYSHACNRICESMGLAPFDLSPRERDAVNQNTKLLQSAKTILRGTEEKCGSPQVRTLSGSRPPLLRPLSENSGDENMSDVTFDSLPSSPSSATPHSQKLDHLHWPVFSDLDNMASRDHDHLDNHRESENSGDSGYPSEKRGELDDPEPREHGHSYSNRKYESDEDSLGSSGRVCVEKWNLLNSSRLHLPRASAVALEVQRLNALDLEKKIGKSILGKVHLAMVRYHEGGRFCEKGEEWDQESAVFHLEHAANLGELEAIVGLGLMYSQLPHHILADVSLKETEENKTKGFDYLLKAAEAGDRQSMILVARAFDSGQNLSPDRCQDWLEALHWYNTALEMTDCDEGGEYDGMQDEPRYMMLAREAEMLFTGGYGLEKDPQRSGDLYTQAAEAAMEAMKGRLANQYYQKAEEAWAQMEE
From the text: as §1

TRIM28 = molecular target: T7, TRIM28 (Homo sapiens, UniProt Q13263); assay: Imatinib-matrix competition in K562 lysate; format: binding; conditions: read-out: RB50 (the source's name)
T7 construct: endogenous in cells; host or cells: K562
From the text: as §1

ABL1 = assay: KAM-matrix competition in K562 lysate; format: binding, human
Method: For synthesis of KAM-derivatized resin, packed NHS-activated sepharose 4 fast flow resin (volume = 2 mL; GE Healthcare) was washed with anhydrous DMSO (3 × 10 mL). To the washed NHS-activated sepharose resin was added 0.5 mM KAM in anhydrous DMSO (8 mL; 2 μmol compound/mL of resin), followed by the addition of triethylamine (30 μL). The reaction mixture was vortexed to mix and pelleted by centrifugation (100 x g, 2 min). An aliquot of the supernatant (50 μL) was saved for LC/MS analysis. The reaction mixture was allowed incubate overnight at room temp with end-over-end rotating agitation. On the following day, the reaction mixture was pelleted by centrifugation (100 x g, 2 min). An aliquot of the supernatant (50 μL) was saved for LC/MS analysis. […] 2-(2-Aminoethoxy)ethanol (100 μL; Sigma-Aldrich) was added to the reaction mixture, vortexed, and incubate overnight at room temp with end-over-end agitation. The KAM-derivatized resin was then washed with anhydrous DMSO (3 × 10 mL) and 95% EtOH (3 × 10 mL).
as §1

PKMYT1 = molecular target: T8, PKMYT1 (Homo sapiens, UniProt Q99640); assay: KAM-matrix competition in K562 lysate; format: binding;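 for 0.001 uM KAM: median log10 fold change of treatment over DMSO control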;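 for 0.01 uM KAM: median log10 fold change of treatment over DMSO control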;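 for 0.1 uM KAM: median log10 fold change of treatment over DMSO control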;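 for 1 uM KAM: median log10 fold change of treatment over DMSO control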;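 for 10 uM KAM: median log10 fold change of treatment over DMSO control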
T8 construct: endogenous in cells; host or cells: K562
T8 sequence (Q99640 1-499): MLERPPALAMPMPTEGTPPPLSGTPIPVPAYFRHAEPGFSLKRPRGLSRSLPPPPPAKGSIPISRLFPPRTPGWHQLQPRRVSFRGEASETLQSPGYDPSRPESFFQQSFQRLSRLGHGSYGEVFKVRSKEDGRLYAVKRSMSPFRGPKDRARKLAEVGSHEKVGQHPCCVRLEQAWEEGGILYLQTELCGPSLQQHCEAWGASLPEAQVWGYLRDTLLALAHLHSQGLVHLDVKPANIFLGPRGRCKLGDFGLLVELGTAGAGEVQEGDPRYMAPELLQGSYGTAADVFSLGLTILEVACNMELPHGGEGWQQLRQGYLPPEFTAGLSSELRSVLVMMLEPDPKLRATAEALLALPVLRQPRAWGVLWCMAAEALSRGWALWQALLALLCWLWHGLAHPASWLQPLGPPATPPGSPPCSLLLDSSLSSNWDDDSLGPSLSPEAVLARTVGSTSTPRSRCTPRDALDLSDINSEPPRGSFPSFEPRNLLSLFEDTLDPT
Method: (§2) Supplement 12953_2017_125_MOESM1_ESM.zip/MS_Supp Info.xlsx, sheet "KAM" | column: 10 uM KAM; 1 uM KAM; 0.1 uM KAM; 0.01 uM KAM; 0.001 uM KAM; RB50

SMG1 = molecular target: T9, SMG1 (Homo sapiens, UniProt Q96Q15); assay: KAM-matrix competition in K562 lysate; format: binding;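 for 0.001 uM KAM: median log10 fold change of treatment over DMSO control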;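 for 0.01 uM KAM: median log10 fold change of treatment over DMSO control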;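 for 0.1 uM KAM: median log10 fold change of treatment over DMSO control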;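 for 1 uM KAM: median log10 fold change of treatment over DMSO control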;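 for 10 uM KAM: median log10 fold change of treatment over DMSO control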
T9 construct: endogenous in cells; host or cells: K562
Method: as §2

[1] = KAM 0.001-10 uM, read-out: RB50 (the source's name)

pIC50 (ALPK3): < 5.00
pIC50 (BRD4): < 5.00
pIC50 (BUB1B): < 5.00
pIC50 (CDC7): < 5.00
pIC50 (CHD5): < 5.00
pIC50 (EEF2K): < 5.00
pIC50 (TRIM28): < 5.00
SMILES: Cc1ccc(NC(=O)c2ccc(CN3CCN(C)CC3)cc2)cc1Nc1nccc(-c2cccnc2)n1 [Imatinib]

SMILES: N#CCc1ccc(Nc2nc(NCCCN)cc(Nc3cc(C4CC4)[nH]n3)n2)cc1 [KAM]
median Log10 fold change (ABL1; 0.001 uM KAM): -0.005017
median Log10 fold change (ABL1; 0.01 uM KAM): -0.004253
median Log10 fold change (ABL1; 0.1 uM KAM): -0.1612
median Log10 fold change (ABL1; 1 uM KAM): -0.353
median Log10 fold change (ABL1; 10 uM KAM): -0.4826
pIC50 (ABL1; ABL1, KAM-based affinity matrix, K562 lysates, read-out: RB50 (the source's name)): 6.12
pIC50 (PKMYT1; [1]): < 5.00
0.001 uM KAM (PKMYT1; relative to 0 uM KAM = 0): -0.05315
0.01 uM KAM (PKMYT1; relative to 0 uM KAM = 0): -0.03451
0.1 uM KAM (PKMYT1; relative to 0 uM KAM = 0): -0.2607
1 uM KAM (PKMYT1; relative to 0 uM KAM = 0): -0.4249
10 uM KAM (PKMYT1; relative to 0 uM KAM = 0): -0.2726
pIC50 (SMG1; [1]): < 5.00
0.001 uM KAM (SMG1; relative to 0 uM KAM = 0): -0.09325
0.01 uM KAM (SMG1; relative to 0 uM KAM = 0): 0.027
0.1 uM KAM (SMG1; relative to 0 uM KAM = 0): 0.0044
1 uM KAM (SMG1; relative to 0 uM KAM = 0): 0.06163
10 uM KAM (SMG1; relative to 0 uM KAM = 0): 0.05027
